Literature values as cited in paper PMC8230491 (Pharmaceuticals, 2021).

Details: KET COOH; protonated LYS γ-NH2; no reference given

pKa: 10.29
SMILES: NCCCC[C@H](N)C(=O)O [LYS, lysine]
